Patent US9561190B2, “Nonwoven membrane as a drug delivery system” (priority 2012, dated 2017)

Experiments:
Type in all cases: cell-based
SK-N-AS = assay: MTS cell viability assay, soluble SN-38 on SK-N-AS neuroblastoma cells; conditions: 4 hours exposure, viability 4 days later
Protocol: (§1) To determine whether the antitumor activity of the drug was conserved after the manufacturing process of the membranes, the present inventors co-incubated the membranes with neuroblastoma cell lines. In a previous experiment, the present inventors determined the extent to which SN-38 inhibits neuroblastoma. Such experiment was performed by exposing LAN-1, SK-N-BE(2)c and SK-N-AS cell lines to a fresh solution of SN-38 in RPMI, prepared from a stock solution of SN-38, 1 mg/mL in DMSO. Briefly, cells were plated in 96 well plates, 3000 cells per well, in RPMI medium. 24 hours later, the cells were exposed to SN-38 (concentration range 10-0.000001 μM). After 4 hours, the drug was withdrawn and fresh medium was added. The viability of the cell culture was quantified 4 days later, by using the MTS cell viability assay (Promega).
(§2) Each dot represents the mean (±SD) of 3-5 wells.

SK-N-BE(2)c = assay: MTS cell viability assay, soluble SN-38 on SK-N-BE(2)c neuroblastoma cells; conditions: SK-N-BE(2)c cells, 4 hours exposure, viability 4 days later
Protocol: as §1, §2

LAN-1 = assay: MTS cell viability assay, soluble SN-38 on LAN-1 neuroblastoma cells; conditions: LAN-1 cells, 4 hours exposure, viability 4 days later
Protocol: as §1, §2

`CCc1c2c(nc3ccc(O)cc13)-c1cc3c(c(=O)n1C2)COC(=O)[C@]3(O)CC` [SN-38, 7-ethyl-10-hydroxycamptothecin] gave an IC50 (SK-N-AS) of 190 nM, an IC50 (SK-N-BE(2)c) of 46 nM and an IC50 (LAN-1) of 10 nM.
